Experimental data taken from patent US20260115194A1, “NEW TREATMENTS FOR PAIN” (Sevenless Therapeutics Limited, priority 2023, published 2026).

Biological target: T1, KRAS WT/SOS1 (Homo sapiens, UniProt Q07889)
T1 sequence (Q07889 1-1333): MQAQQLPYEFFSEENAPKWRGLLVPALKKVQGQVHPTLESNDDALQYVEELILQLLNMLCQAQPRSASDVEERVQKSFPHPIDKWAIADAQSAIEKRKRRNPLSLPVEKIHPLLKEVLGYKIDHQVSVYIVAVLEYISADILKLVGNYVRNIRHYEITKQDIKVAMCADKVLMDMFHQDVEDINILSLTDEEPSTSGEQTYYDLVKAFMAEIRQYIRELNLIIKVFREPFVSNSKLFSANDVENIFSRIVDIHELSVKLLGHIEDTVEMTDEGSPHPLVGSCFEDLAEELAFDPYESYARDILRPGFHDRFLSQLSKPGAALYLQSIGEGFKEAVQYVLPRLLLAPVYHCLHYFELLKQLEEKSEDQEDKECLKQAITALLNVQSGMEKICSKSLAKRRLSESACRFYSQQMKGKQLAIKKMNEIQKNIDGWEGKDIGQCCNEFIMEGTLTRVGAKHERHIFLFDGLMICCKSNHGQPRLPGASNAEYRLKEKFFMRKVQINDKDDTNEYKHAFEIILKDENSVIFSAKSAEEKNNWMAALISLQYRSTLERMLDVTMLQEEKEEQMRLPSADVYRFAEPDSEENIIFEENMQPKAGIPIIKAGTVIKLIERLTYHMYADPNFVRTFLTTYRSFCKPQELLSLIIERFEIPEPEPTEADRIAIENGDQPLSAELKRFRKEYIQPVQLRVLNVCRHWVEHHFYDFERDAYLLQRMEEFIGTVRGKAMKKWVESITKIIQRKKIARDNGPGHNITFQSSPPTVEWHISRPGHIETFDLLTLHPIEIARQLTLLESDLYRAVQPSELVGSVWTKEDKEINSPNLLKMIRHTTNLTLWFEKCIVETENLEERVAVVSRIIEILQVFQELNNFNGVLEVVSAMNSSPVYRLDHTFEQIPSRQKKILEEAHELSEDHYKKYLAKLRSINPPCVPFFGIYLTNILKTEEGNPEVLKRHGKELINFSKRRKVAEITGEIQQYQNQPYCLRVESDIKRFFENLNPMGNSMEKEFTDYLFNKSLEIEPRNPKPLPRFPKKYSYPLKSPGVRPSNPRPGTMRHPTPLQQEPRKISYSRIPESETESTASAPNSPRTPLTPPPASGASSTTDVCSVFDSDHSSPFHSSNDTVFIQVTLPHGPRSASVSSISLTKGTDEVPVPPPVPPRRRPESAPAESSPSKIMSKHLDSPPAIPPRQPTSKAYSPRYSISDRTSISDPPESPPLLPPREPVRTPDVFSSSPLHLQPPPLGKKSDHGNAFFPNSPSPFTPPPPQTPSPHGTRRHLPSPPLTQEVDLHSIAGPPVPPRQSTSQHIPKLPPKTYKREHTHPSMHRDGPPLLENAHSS
Assay: HTRF KRAS WT/SOS1 PPI kit (Cisbio) screen for SOS1 inhibitors
Assay type: binding
Settings: 10-point 1/2-log dilution from 10 μM, 60 minutes at room temperature
Protocol: Compounds were screened using an HTRF KRAS WT/SOS1 PPI kit provided by Cis bio, according to the manufacturer's instructions, with the modifications described below. All reagents were allowed to equilibrate to room temperature and diluted to working stock in Binding Domain Detection buffer (BDD buffer). Stock solutions were prepared by adding 1 part Tag1-KRAS WT/GTP to 1 part Tag2-SOS1 and 1 part BDD. Separately, 1 part Anti-Tag1 XL665 antibody premix was added to Anti-Tag2 Tb cryptate antibody premix. BI-3406 (Selleck Chemicals) was used as a standard, solubilised to 10 mM in DMSO. Test compounds were also solubilised to 10 mM in DMSO. […] Per well, 6 μL of Tag1-KRAS WT/GTP premix, 4 ul Tag2-SOS1 premix and 10 μl of Anti-Tag1 XL665 and Anti-Tag2 Tb cryptate antibodies were then added using a E1-ClipTip™ Electronic Adjustable Multichannel Equalizer Pipette. After the final addition, the plate was covered and placed in the benchtop incubator set at 22° C. The reaction was incubated for 60 minutes at room temperature, prior to reading using a Pherastar FSX plate reader.

IC50: < 100 nM
Structure (SMILES): Cc1nc(N[C@H](C)c2cccc(C(F)F)c2F)c2cc(S(=O)(=O)N3CC4CC(C3)O4)ncc2n1 [Example 18, 6-((6-oxa-3-azabicyclo [3.1.1]heptan-3-yl)sulfonyl)-N—((R)-1-(3-(difluoromethyl)-2-fluorophenyl)ethyl)-2-methylpyrido[3,4-d] pyrimidin-4-amine]
